Laboratory results published in ChEMBL document CHEMBL1201861, “Genomics of Drug Sensitity in Cancer screening data, Wellcome Trust Sanger Institute”.

Tests used:
Assay in all cases: cells
Settings in all cases: Homo sapiens
CTV-1 = assay type: functional, cell-based;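 further: growth inhibition of the cell line, read out with a cell viability assay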
Description: SANGER: Inhibition of human CTV-1 cell growth in a cell viability assay.

D-263MG = assay type: functional, cell-based
Description: SANGER: Inhibition of human D-263MG cell growth in a cell viability assay.

DB = assay type: functional, cell-based
Description: SANGER: Inhibition of human DB cell growth in a cell viability assay.

DU-4475 = assay type: functional, cell-based
Description: SANGER: Inhibition of human DU-4475 cell growth in a cell viability assay.

ES6 = assay type: functional, cell-based;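 further: growth inhibition of human ES6 cells, read out with a cell viability assay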
Description: SANGER: Inhibition of human ES6 cell growth in a cell viability assay.

G-401 = assay type: functional, cell-based
Description: SANGER: Inhibition of human G-401 cell growth in a cell viability assay.

GCIY = assay type: functional, cell-based;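 further: growth inhibition of the human GCIY cell line, read out by a cell viability assay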
Description: SANGER: Inhibition of human GCIY cell growth in a cell viability assay.

GI-ME-N = assay type: functional, cell-based;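 further: growth inhibition of human GI-ME-N cells, read out with a cell viability assay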
Description: SANGER: Inhibition of human GI-ME-N cell growth in a cell viability assay.

HCC 2998 = assay type: functional, cell-based;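 further: growth inhibition of human HCC2998 cells, measured with a cell viability read-out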
Description: SANGER: Inhibition of human HCC2998 cell growth in a cell viability assay.

HO-1-N-1 = assay type: functional, cell-based;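 further: growth inhibition of human HO-1-N-1 cells, read out with a cell viability assay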
Description: SANGER: Inhibition of human HO-1-N-1 cell growth in a cell viability assay.

IST-MEL1 = assay type: functional, cell-based;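 further: growth inhibition of the cell line, read out with a cell viability assay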
Description: SANGER: Inhibition of human IST-MEL1 cell growth in a cell viability assay.

IST-MES1 = assay type: functional, cell-based;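 further: growth inhibition of IST-MES1 cells, measured with a cell viability assay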
Description: SANGER: Inhibition of human IST-MES1 cell growth in a cell viability assay.

KE-37 = assay type: functional, cell-based;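 further: growth inhibition of KE-37 cells, read out with a cell viability assay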
Description: SANGER: Inhibition of human KE-37 cell growth in a cell viability assay.

KM-H2 = assay type: functional, cell-based;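 further: growth inhibition of KM-H2 cells, read out by a cell viability assay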
Description: SANGER: Inhibition of human KM-H2 cell growth in a cell viability assay.

KNS-81-FD = assay type: functional, cell-based;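 further: growth inhibition of KNS-81-FD cells, read out with a cell viability assay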
Description: SANGER: Inhibition of human KNS-81-FD cell growth in a cell viability assay.

KURAMOCHI = assay type: functional, cell-based;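 further: growth inhibition of KURAMOCHI cells, read out with a cell viability assay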
Description: SANGER: Inhibition of human KURAMOCHI cell growth in a cell viability assay.

Lu-65 = assay type: functional, cell-based;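 further: growth inhibition of Lu-65 cancer cells, read out by a cell viability assay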
Description: SANGER: Inhibition of human LU-65 cell growth in a cell viability assay.

LXF-289 cell line = assay type: functional, cell-based
Description: SANGER: Inhibition of human LXF-289 cell growth in a cell viability assay.

MEG-01 = assay type: functional, cell-based;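 further: growth inhibition of MEG-01 cells, read out by a cell viability assay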
Description: SANGER: Inhibition of human MEG-01 cell growth in a cell viability assay.

MS-1 = assay type: functional, cell-based;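 further: growth inhibition of MS-1 cells, read out by cell viability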
Description: SANGER: Inhibition of human MS-1 cell growth in a cell viability assay.

MSTO-211H = assay type: functional, cell-based
Description: SANGER: Inhibition of human MSTO-211H cell growth in a cell viability assay.

MV4-11 = assay type: functional, cell-based, MV-4-11;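 further: cell viability readout measuring growth inhibition of human MV-4-11 cells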
Description: SANGER: Inhibition of human MV-4-11 cell growth in a cell viability assay.

MZ7-mel = assay type: functional, cell-based;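 further: growth inhibition of human MZ7-mel cells, measured by a cell viability assay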
Description: SANGER: Inhibition of human MZ7-mel cell growth in a cell viability assay.

Mo = assay type: functional, cell-based
Description: SANGER: Inhibition of human Mo-T cell growth in a cell viability assay.

NB5 = assay type: functional, cell-based;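 further: growth inhibition of NB5 cells, read out as cell viability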
Description: SANGER: Inhibition of human NB5 cell growth in a cell viability assay.

NB6 = assay type: functional, cell-based;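 further: growth inhibition of NB6 cells, read out by a cell viability assay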
Description: SANGER: Inhibition of human NB6 cell growth in a cell viability assay.

NCI-H1395 = assay type: functional, cell-based;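 further: cell viability assay read-out quantifying reduced proliferation of human NCI-H1395 cells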
Description: SANGER: Inhibition of human NCI-H1395 cell growth in a cell viability assay.

NCI-H1650 = assay type: functional, cell-based;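 further: growth inhibition of human NCI-H1650 cells measured by a cell viability assay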
Description: SANGER: Inhibition of human NCI-H1650 cell growth in a cell viability assay.

NCI-H292 = assay type: functional, cell-based;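 further: growth inhibition of NCI-H292 cells, read out with a cell viability assay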
Description: SANGER: Inhibition of human NCI-H292 cell growth in a cell viability assay.

NCI-H358 = assay type: functional, cell-based;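 further: growth inhibition of NCI-H358 human cells, read out with a cell viability assay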
Description: SANGER: Inhibition of human NCI-H358 cell growth in a cell viability assay.

NCI-H526 = assay type: functional, cell-based;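 further: growth inhibition of the human NCI-H526 cell line, measured by a cell viability assay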
Description: SANGER: Inhibition of human NCI-H526 cell growth in a cell viability assay.

NCI-H720 = assay type: functional, cell-based;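 further: growth inhibition of human NCI-H720 cells determined by a cell viability assay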
Description: SANGER: Inhibition of human NCI-H720 cell growth in a cell viability assay.

NEC8 = assay type: functional, cell-based;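 further: growth inhibition of human NEC8 cells, read out by a cell viability assay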
Description: SANGER: Inhibition of human NEC8 cell growth in a cell viability assay.

NKM-1 = assay type: functional, cell-based;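 further: growth inhibition of NKM-1 cells, read out with a cell viability assay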
Description: SANGER: Inhibition of human NKM-1 cell growth in a cell viability assay.

PFSK-1 = assay type: functional, cell-based;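 further: cell viability assay measuring how strongly compounds suppress growth of human PFSK-1 cells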
Description: SANGER: Inhibition of human PFSK-1 cell growth in a cell viability assay.

RH-1 = assay type: functional, cell-based;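 further: growth inhibition of human RH-1 cells, read out with a cell viability assay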
Description: SANGER: Inhibition of human RH-1 cell growth in a cell viability assay.

RPMI-8866 = assay type: functional, cell-based
Description: SANGER: Inhibition of human RPMI-8866 cell growth in a cell viability assay.

RS4-11 = assay type: functional, cell-based;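 further: growth inhibition of RS4-11 cells, read out by a cell viability assay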
Description: SANGER: Inhibition of human RS4-11 cell growth in a cell viability assay.

SCC-15 = assay type: functional, cell-based;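 further: growth inhibition of SCC-15 cells, read out with a cell viability assay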
Description: SANGER: Inhibition of human SCC-15 cell growth in a cell viability assay.

SCC-9 = assay type: functional, cell-based;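 further: Read-out is a cell viability assay, with values giving inhibition of cell growth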
Description: SANGER: Inhibition of human SCC-9 cell growth in a cell viability assay.

SF-126 = assay type: functional, cell-based;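 further: growth inhibition of human SF126 cells, read out with a cell viability assay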
Description: SANGER: Inhibition of human SF126 cell growth in a cell viability assay.

SF-268 = assay type: functional, cell-based;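 further: growth inhibition of SF-268 cells determined with a cell viability assay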
Description: SANGER: Inhibition of human SF268 cell growth in a cell viability assay.

SK-N-FI = assay type: functional, cell-based;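 further: cell viability assay measuring growth inhibition of human SK-N-FI cells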
Description: SANGER: Inhibition of human SK-N-FI cell growth in a cell viability assay.

SNB-75 = assay type: functional, cell-based;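 further: cell viability assay measuring growth inhibition of human SNB-75 cells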
Description: SANGER: Inhibition of human SNB75 cell growth in a cell viability assay.

SW780 = assay type: functional, cell-based;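 further: growth inhibition of the cells, read out with a cell viability assay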
Description: SANGER: Inhibition of human SW780 cell growth in a cell viability assay.

SW 962 = assay type: functional, cell-based;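 further: growth inhibition of human SW962 cells, read out by a cell viability assay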
Description: SANGER: Inhibition of human SW962 cell growth in a cell viability assay.

SiHa = assay type: functional, cell-based;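 further: Viability-based readout of growth inhibition in SiHa cells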
Description: SANGER: Inhibition of human SiHa cell growth in a cell viability assay.

AM-38 = assay type: functional, cell-based;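 further: growth inhibition of AM-38 cells of human origin, read out by a cell viability assay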
Description: SANGER: Inhibition of human AM-38 cell growth in a cell viability assay.

ATN-1 = assay type: functional, cell-based;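 further: growth inhibition of human ATN-1 cells, read out with a cell viability assay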
Description: SANGER: Inhibition of human ATN-1 cell growth in a cell viability assay.

BE-13 = assay type: functional, cell-based;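 further: growth inhibition of human BE-13 cells, measured with a cell viability assay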
Description: SANGER: Inhibition of human BE-13 cell growth in a cell viability assay.

BT-474 = assay type: functional, cell-based
Description: SANGER: Inhibition of human BT-474 cell growth in a cell viability assay.

Becker = assay type: functional, cell-based;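 further: growth inhibition of Becker cells, read out with a cell viability assay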
Description: SANGER: Inhibition of human Becker cell growth in a cell viability assay.

C2BBe1 = assay type: functional, cell-based;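 further: growth inhibition of C2BBe1 cells, read out through a viability assay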
Description: SANGER: Inhibition of human C2BBe1 cell growth in a cell viability assay.

CAL-33 = assay type: functional, cell-based;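 further: growth inhibition of CAL-33 cells, read out with a cell viability assay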
Description: SANGER: Inhibition of human CAL-33 cell growth in a cell viability assay.

TE-12 = assay type: functional, cell-based;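 further: growth inhibition of TE-12 cells, read out by a cell viability assay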
Description: SANGER: Inhibition of human TE-12 cell growth in a cell viability assay.

TGBC24TKB = assay type: functional, cell-based;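 further: growth inhibition of human TGBC24TKB cells, read out with a cell viability assay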
Description: SANGER: Inhibition of human TGBC24TKB cell growth in a cell viability assay.

VA-ES-BJ = assay type: functional, cell-based;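 further: growth inhibition of the VA-ES-BJ cell line, read out by a cell viability assay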
Description: SANGER: Inhibition of human VA-ES-BJ cell growth in a cell viability assay.

COLO-684 = assay type: functional, cell-based
Description: SANGER: Inhibition of human COLO-684 cell growth in a cell viability assay.

CP66-MEL = assay type: functional, cell-based
Description: SANGER: Inhibition of human CP66-MEL cell growth in a cell viability assay.

HuTu80 = assay type: functional, cell-based, HUTU-80
Description: SANGER: Inhibition of human HUTU-80 cell growth in a cell viability assay.

LB373-MEL-D = assay type: functional, cell-based
Description: SANGER: Inhibition of human LB373-MEL-D cell growth in a cell viability assay.

MMAC-SF = assay type: functional, cell-based
Description: SANGER: Inhibition of human MMAC-SF cell growth in a cell viability assay.

`Cn1c(=O)n(-c2ccc(C(C)(C)C#N)cc2)c2c3cc(-c4cnc5ccccc5c4)ccc3ncc21` [DACTOLISIB] was tested. Which IC50 (CTV-1) did it give?
Its IC50 is 32.8 nM.

And the IC50 (D-263MG)?
Its IC50 is 29.3 nM.

And the IC50 (DB)?
Its IC50 is 27.4 nM.

And the IC50 (DU-4475)?
The IC50 was 9.44 nM.

And the IC50 (ES6)?
The IC50 was 92.8 nM.

What about the IC50 (G-401) of the same compound?
The IC50 was 40.8 nM.

And the IC50 (GCIY)?
The IC50 was 50.7 nM.

And the IC50 (GI-ME-N)?
Its IC50 is 29.9 nM.

What about the IC50 (HCC 2998) of the same compound?
The IC50 was 118 nM.

What about the IC50 (HO-1-N-1) of the same compound?
The IC50 was 25.2 nM.

And the IC50 (IST-MEL1)?
The IC50 was 18.8 nM.

What about the IC50 (IST-MES1) of the same compound?
The IC50 was 237 nM.

And the IC50 (KE-37)?
The IC50 was 58.8 nM.

What about the IC50 (KM-H2) of the same compound?
Its IC50 is 171 nM.

And the IC50 (KNS-81-FD)?
Its IC50 is 19.5 nM.

What about the IC50 (KURAMOCHI) of the same compound?
The IC50 was 266 nM.

And the IC50 (Lu-65)?
The IC50 was 1620 nM.

And the IC50 (LXF-289 cell line)?
Its IC50 is 26 nM.

And the IC50 (MEG-01)?
Its IC50 is 63.5 nM.

What about the IC50 (MS-1) of the same compound?
Its IC50 is 108 nM.

What about the IC50 (MSTO-211H) of the same compound?
Its IC50 is 63.5 nM.

And the IC50 (MV4-11)?
Its IC50 is 28.7 nM.

What about the IC50 (MZ7-mel) of the same compound?
The IC50 was 324 nM.

What about the IC50 (Mo) of the same compound?
The IC50 was 948 nM.

What about the IC50 (NB5) of the same compound?
The IC50 was 40.6 nM.

And the IC50 (NB6)?
Its IC50 is 397 nM.

And the IC50 (NCI-H1395)?
The IC50 was 199 nM.

What about the IC50 (NCI-H1650) of the same compound?
Its IC50 is 204 nM.

And the IC50 (NCI-H292)?
Its IC50 is 27 nM.

What about the IC50 (NCI-H358) of the same compound?
Its IC50 is 1960 nM.

And the IC50 (NCI-H526)?
Its IC50 is 824 nM.

What about the IC50 (NCI-H720) of the same compound?
The IC50 was 3.57 nM.

And the IC50 (NEC8)?
Its IC50 is 67.2 nM.

What about the IC50 (NKM-1) of the same compound?
Its IC50 is 54.8 nM.

And the IC50 (PFSK-1)?
Its IC50 is 49.1 nM.

And the IC50 (RH-1)?
The IC50 was 54.7 nM.

What about the IC50 (RPMI-8866) of the same compound?
Its IC50 is 72.8 nM.

And the IC50 (RS4-11)?
Its IC50 is 0.0269 µM.

And the IC50 (SCC-15)?
Its IC50 is 174 nM.

And the IC50 (SCC-9)?
Its IC50 is 293 nM.

What about the IC50 (SF-126) of the same compound?
Its IC50 is 19.4 nM.

And the IC50 (SF-268)?
The IC50 was 102 nM.

And the IC50 (SK-N-FI)?
Its IC50 is 148 nM.

What about the IC50 (SNB-75) of the same compound?
The IC50 was 54.3 nM.

And the IC50 (SW780)?
The IC50 was 23.1 nM.

What about the IC50 (SW 962) of the same compound?
Its IC50 is 26.8 nM.

What about the IC50 (SiHa) of the same compound?
The IC50 was 329 nM.

And the IC50 (AM-38)?
The IC50 was 69.3 nM.

And the IC50 (ATN-1)?
Its IC50 is 73.9 nM.

And the IC50 (BE-13)?
Its IC50 is 31.8 nM.

And the IC50 (BT-474)?
Its IC50 is 236 nM.

And the IC50 (Becker)?
Its IC50 is 34.2 nM.

What about the IC50 (C2BBe1) of the same compound?
Its IC50 is 75 nM.

And the IC50 (CAL-33)?
Its IC50 is 85.1 nM.

What about the IC50 (TE-12) of the same compound?
The IC50 was 141 nM.

And the IC50 (TGBC24TKB)?
Its IC50 is 222 nM.

What about the IC50 (VA-ES-BJ) of the same compound?
The IC50 was 17.8 nM.

What about the IC50 (COLO-684) of the same compound?
The IC50 was 33.6 nM.

`CCCS(=O)(=O)Nc1ccc(F)c(C(=O)c2c[nH]c3ncc(Cl)cc23)c1F` [PLX-4720] was tested. Which IC50 (CP66-MEL) did it give?
The IC50 was 4.16 µM.

What about the IC50 (CTV-1) of the same compound?
Its IC50 is over 10000 nM.

And the IC50 (D-263MG)?
Its IC50 is over 10000 nM.

What about the IC50 (DB) of the same compound?
The IC50 was over 10000 nM.

And the IC50 (DU-4475)?
The IC50 was 74.6 nM.

What about the IC50 (ES6) of the same compound?
Its IC50 is over 10000 nM.

And the IC50 (G-401)?
Its IC50 is over 10000 nM.

And the IC50 (GCIY)?
The IC50 was over 10000 nM.

What about the IC50 (GI-ME-N) of the same compound?
Its IC50 is over 10000 nM.

What about the IC50 (HCC 2998) of the same compound?
Its IC50 is over 10000 nM.

And the IC50 (HO-1-N-1)?
The IC50 was over 10000 nM.

What about the IC50 (HuTu80) of the same compound?
The IC50 was over 10 µM.

What about the IC50 (IST-MEL1) of the same compound?
The IC50 was over 10000 nM.

What about the IC50 (IST-MES1) of the same compound?
The IC50 was over 10000 nM.

And the IC50 (KE-37)?
Its IC50 is over 10000 nM.

And the IC50 (KM-H2)?
Its IC50 is over 10000 nM.

What about the IC50 (KNS-81-FD) of the same compound?
The IC50 was over 10000 nM.

What about the IC50 (KURAMOCHI) of the same compound?
Its IC50 is over 10000 nM.

What about the IC50 (LB373-MEL-D) of the same compound?
Its IC50 is over 10 µM.

What about the IC50 (Lu-65) of the same compound?
The IC50 was over 10000 nM.

What about the IC50 (LXF-289 cell line) of the same compound?
Its IC50 is over 10000 nM.

And the IC50 (MEG-01)?
The IC50 was over 10000 nM.

And the IC50 (MMAC-SF)?
The IC50 was 686 nM.

What about the IC50 (MS-1) of the same compound?
The IC50 was over 10000 nM.

And the IC50 (MSTO-211H)?
Its IC50 is over 10000 nM.

And the IC50 (MV4-11)?
The IC50 was over 10000 nM.

And the IC50 (MZ7-mel)?
Its IC50 is 1150 nM.

What about the IC50 (Mo) of the same compound?
The IC50 was over 10000 nM.

And the IC50 (NB5)?
Its IC50 is over 10000 nM.

And the IC50 (NB6)?
Its IC50 is over 10000 nM.

And the IC50 (NCI-H1395)?
The IC50 was over 10000 nM.

And the IC50 (NCI-H1650)?
Its IC50 is over 10000 nM.

What about the IC50 (NCI-H292) of the same compound?
Its IC50 is over 10000 nM.

And the IC50 (NCI-H358)?
Its IC50 is 2920 nM.

And the IC50 (NCI-H526)?
Its IC50 is over 10000 nM.

And the IC50 (NCI-H720)?
Its IC50 is over 10000 nM.

What about the IC50 (NEC8) of the same compound?
Its IC50 is over 10000 nM.

What about the IC50 (NKM-1) of the same compound?
The IC50 was over 10000 nM.

What about the IC50 (PFSK-1) of the same compound?
The IC50 was over 10000 nM.

And the IC50 (RH-1)?
Its IC50 is over 10000 nM.

And the IC50 (RPMI-8866)?
The IC50 was over 10000 nM.

And the IC50 (RS4-11)?
The IC50 was 9.6 µM.

What about the IC50 (SCC-15) of the same compound?
Its IC50 is over 10000 nM.

And the IC50 (SCC-9)?
Its IC50 is over 10000 nM.

What about the IC50 (SF-126) of the same compound?
Its IC50 is over 10000 nM.

What about the IC50 (SF-268) of the same compound?
Its IC50 is over 10000 nM.

What about the IC50 (SK-N-FI) of the same compound?
The IC50 was over 10000 nM.

What about the IC50 (SNB-75) of the same compound?
Its IC50 is over 10000 nM.

What about the IC50 (SW780) of the same compound?
Its IC50 is over 10000 nM.

And the IC50 (SW 962)?
Its IC50 is over 10000 nM.

What about the IC50 (SiHa) of the same compound?
Its IC50 is over 10000 nM.

What about the IC50 (AM-38) of the same compound?
Its IC50 is over 10000 nM.

What about the IC50 (ATN-1) of the same compound?
The IC50 was over 10000 nM.

And the IC50 (BE-13)?
The IC50 was over 10000 nM.

And the IC50 (BT-474)?
The IC50 was over 10000 nM.

And the IC50 (Becker)?
Its IC50 is over 10000 nM.

What about the IC50 (C2BBe1) of the same compound?
The IC50 was over 10000 nM.

And the IC50 (CAL-33)?
Its IC50 is over 10000 nM.

What about the IC50 (TE-12) of the same compound?
Its IC50 is over 10000 nM.

And the IC50 (TGBC24TKB)?
Its IC50 is over 10000 nM.

What about the IC50 (VA-ES-BJ) of the same compound?
The IC50 was over 10000 nM.

And the IC50 (COLO-684)?
Its IC50 is over 10000 nM.
